Test system: rats
Test: Induction of diabetes by intravenous streptozotocin
Assay type: in vivo, rat
Conditions: 50 mg/kg intravenous injection
Experimental: Diabetes was induced by intravenous injection with 50 mg/kg streptozotocin (STZ), which reduced pancreatic insulin content by 95%. One week later, STZ diabetic rats (of weight 200–250 g) were administered either the vehicle alone as a control (labeled CON in FIG. 1), or were administered a combination of human gastrin 17 (4 μg/kg) and human TGFα (4 μg/kg) peptides (labeled GAS/TGF) by once-daily, intraperitoneal injections for 12 days. At 1, 2, 4 and 8 weeks after treatment, intraperitoneal glucose tolerance tests (IPGTT) were performed, to measure both blood glucose levels, and plasma insulin levels, in response to a challenge amount of glucose.

In the case of CN(N=O)C(=O)N[C@H]1C(O)O[C@H](CO)[C@@H](O)[C@@H]1O (mixture of isomers) [streptozotocin], the “reduction of pancreatic insulin content” value is reported as 95%.

— patent US6992060B2, “Prolonged efficacy of islet neogenesis therapy methods with a gastrin/CCK receptor ligand and an EGF receptor ligand composition in subjects with preexisting diabetes” (Waratah Pharmaceuticals, Inc., priority 2001, dated 2006)
